The values below come from patent EP1649856A2, “Use of pimecrolimus for selective immunomodulation” (Novartis AG, priority 2001, dated 2002).

Each structure is given as a SMILES string.

In data set [1] the test system is promoter for human IL-2. Briefly: IL-2 reporter gene assay. It counts as cell-based. The following applies: concentration required for 50% inhibition. The text has this: This assay method is disclosed and enabled in U.S. Patent No. 5,897,990, which is hereby incorporated by reference in its entirety and for all purposes.
The cell line is preferentially a human T-cell or macrophage cell line, e.g., a Jurkat cell line, preferably selected for high native production of the desired gene product, for example, producing IL-2 in response to stimulation in the case of an IL-2 reporter gene assay. The reporter gene is any gene expressing a readily observable product, e.g., an enzyme marker such as β-galactosidase or luciferase, or any other suitable enzyme marker. For example, where the enzyme marker is β-galactosidase, the reporter gene is, e.g., a bacterial lacZ gene; where the enzyme marker is luciferase, the gene is, e.g., a Phorinus luciferase gene. Another suitable marker is the gene for the green fluorescent protein produced by the bioluminescent jellyfish, e.g., as described in Chalfie et al., Science, Vol. 263, pp. 802-805 (1994). The promoter gene is a promoter gene for a cytokine or protein for which transcription is stimulated or suppressed by the drug to be monitored.
Blood samples from the patient are diluted, their effect on gene expression in the above described system is measured, and the assay is standardized using known concentrations of the immunosuppressive material.
For orientation: In a reporter assay the amount or activity of a reporter protein is the signal.

Data set [2] is described as follows: in vivo. Set-up: species or system rats. The procedure: In another study designed to explore the differences between pimecrolimus and FK506 and to determine whether these differences might be associated with a different tissue distribution, the exposure to pimecrolimus and FK506 in various organs after oral administration were measured. Animals received 2 oral doses of 25 mg/kg in an interval of 2 hours. […] Pimecrolimus was found consistently to have a higher skinlblood concentration ratio than FK506 (2 hours: 7.3 vs. 2.8; 6 hours: 13 vs. 1.6; 24 hours: 36 vs. 6.0). The AUC0-24h in skin calculated for pimecrolimus was twice as high as with FK506.
These distribution characteristics are relevant not only for oral, but also for topical application, as the compound enters systemic circulation after permeation through the skin.

Data set [3] relates to allergic contact dermatitis (ACD). Description: Mouse model of allergic contact dermatitis (ACD). The data set is classed as in vivo. The note with it: oral, same doses.
For data set [4] the test system is unchanged. Description: Rat ACD model. The data set is classed as in vivo.
Data set [5] concerns SCID mice reconstituted with CD4^+CD45RB^HI T cells. Briefly: SCID-IBD mouse model, delayed treatment of established IBD. The data set is classed as in vivo. The following applies: 100 mg/kg/day p.o. started after 7, 14 or 21 days, until 41 days. The procedure: In order to determine if pimecrolimus is also effective once IBD is established, SCID mice were treated with pimecrolimus at a dose level of 100 mg/kg/day at days 7, 14 or 21 following the transfer of the disease causing CD4^+ T cells. The study was terminated after 41 days, i.e., the mice were treated for 33, 26 and 19 days, respectively.
SCID mice were reconstituted with 2 x 10^5 CD4^+CD45RB^HI T cells and treatment with pimecrolimus (100 mg/kg/day p.o.) started after 7, 14 or 21 days and continued daily until 41 days. Treatment with the placebo formulation started after 7 days. BW was monitored once a week for the first 2 weeks and then twice weekly. Data are expressed as mean percent BW relative to the weight on day 0 ± s.e.m. for n = 9 (PBS), n = 8 (ASM(7d) & ASM(21d) and n = 7 (ASM(14d) and placebo) mice per group. PBS refers to the non-transferred mice which have been pooled with regard to percent BW values since no treatment dependent changes were found. p<0.01 relative to the placebo-treated group at 41 days.
SCID mice were reconstituted with 2 x 10^5 CD4^+CD45RB^HI T cells and treatment with pimecrolimus (100 mg/kg/day p.o.) started after 7, 14 or 21 days and continued daily until 41 days. Treatment with the placebo formulation started after 7 days. On day 41, mice were killed and serum kept for haptoglobin assay. Data are expressed as mean haptoglobin (mg/mL) ± s.e.m. for n = 9 (PBS), n = 8 (ASM(7d)) and n = 7 (ASM(14d), ASM(21d) and placebo) mice per group. […]
SCID mice were reconstituted with 2 x 10^5 CD4^+CD45RB^HI T cells and treatment with pimecrolimus (100 mg/kg/day p.o.) started after7, 14 or 21 days and continued daily until 41 days. […] Data are expressed as the mean neutrophil numbers, calculated from the percent positive cells and the total cell number per sample, ± s.e.m. for n mice (n in each bar) per group. p<0.05 calculated relative to the placebo-treated group.

For `CC[C@@H]1/C=C(\C)C[C@H](C)C[C@H](OC)[C@H]2O[C@@](O)(C(=O)C(=O)N3CCCC[C@H]3C(=O)O[C@H](/C(C)=C/[C@@H]3CC[C@H](Cl)[C@H](OC)C3)[C@H](C)[C@@H](O)CC1=O)[C@H](C)C[C@@H]2OC` [pimecrolimus, 33-epichloro-33-desoxy-ascomycin], the IC50 (usually the concentration needed to halve the response being measured) in data set [1] turned out to be 1.5 nM. Moreover, in data set [2] (2 oral doses of 25 mg/kg), the “AUC0-24h in skin compared with FK506” value was “twice as high”; the “exposure in all other tissues, including blood, lymph nodes and kidney, compared with FK506” value was “lower”. For the same compound, in data set [2] (rat, skin, 2 oral doses of 25 mg/kg in an interval of 2 hours, 2 hours after the last dosing, read-out: skinlblood concentration ratio), the Kp at 2 h was determined as 7.3. Also, the Kp at 6 h in data set [2] (rat, skin, 2 oral doses of 25 mg/kg in an interval of 2 hours, 6 hours after the last dosing, read-out: skinlblood concentration ratio) came out at 13. In addition, the Kp at 24 h in data set [2] (rat, skin, 2 oral doses of 25 mg/kg in an interval of 2 hours, 24 hours after the last dosing, read-out: skinlblood concentration ratio) worked out at 36. For the same compound, in data set [3], the “efficacy compared with FK506” value is given as “equipotent”. In addition, the “efficacy compared with FK506” value in data set [4] (oral, same doses, rat ACD model) is “superior”. The “efficacy relative to oral CyA” value in data set [4] (rat ACD (12.5 mg/kg pimecrolimus similar to 50 mg/kg CyA)) is 4 fold. Also, in data set [5], the “acute phase response (serum haptoglobin) in established IBD” value is “inhibits the ongoing acute phase response”; the “blood and spleen neutrophilia in established/ongoing colitis” value is “strongly inhibits”; the “loss of BW in established/ongoing colitis” value is “highly-effective in reversing the loss of BW”.
